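Test compounds were applied to cells in 96-well plates for 48 hours at 5 doses. GI50: concentration for 50% inhibition of growth. Definition used: TGI = concentration required for complete inhibition of growth.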
Key:
Test in all cases: NCI tumour cell line growth inhibition, 48 h
[1] = test system: K-562 leukemia
[2] = test system: SW-620 colon
[3] = test system: MOLT-4 leukemia
[4] = test system: SN12C renal
[5] = test system: KM12 colon
[6] = test system: M14 melanoma
[7] = test system: UACC-62 melanoma
[8] = test system: NCI-H522 lung
[9] = test system: OVCAR-4 ovarian
[10] = test system: HOP-92 NSCLC

| Structure (SMILES) | TGI [1] [µM] | TGI [2] [µM] | TGI [3] [µM] | TGI [4] [µM] | TGI [5] [µM] | TGI [6] [µM] | TGI [7] [µM] | GI50 [8] [µM] | TGI [8] [µM] | GI50 [1] [µM] | GI50 [9] [µM] | TGI [9] [µM] | GI50 [2] [µM] | GI50 [3] [µM] | GI50 [4] [µM] | GI50 [5] [µM] | GI50 [10] [µM] | TGI [10] [µM] | GI50 [6] [µM] | GI50 [7] [µM] |
| --- | --- | --- | --- | --- | --- | --- | --- | --- | --- | --- | --- | --- | --- | --- | --- | --- | --- | --- | --- | --- |
| O=C(c1ccco1)N(C(=S)OCc1ccccn1)c1ccccc1 | > 100 | > 100 | > 100 | > 100 | > 100 | > 100 | > 100 |  |  |  |  |  |  |  |  |  |  |  |  |  |
| COc1cccc(-c2nc3sccn3c2-c2ccnc(NCCNC(=O)Nc3cccc(C(F)(F)F)c3)n2)c1 | > 100 | 91.5 | 9.94 | 26.5 | 10.1 | 8.48 | 7.48 | 2.67 | 8.51 | 3.48 | 3.78 | 34.1 | 4.47 | 3.27 | 4.03 | 3.36 | 0.853 | 9.47 | 2.96 | 2.55 |
| CC[N+](CC)=c1ccc2nc3c(cc(N)c4ccccc43)oc-2c1 |  |  | 0.334 |  | 0.666 | 0.61 |  |  |  |  |  |  |  | 0.122 |  | 0.247 | 0.19 | 0.497 | 0.216 |  |
| CCOC(=O)C(O)(NC(C)=O)C(F)(F)F (centres undefined) | > 100 | > 100 | > 100 | > 100 | > 100 | > 100 | > 100 |  | > 100 |  |  | > 100 |  |  |  |  |  | > 100 |  |  |
| COc1cc(C2C3=C(COC3=O)OC(C)(C)Oc3cc4c(cc32)OCO4)cc(OC)c1OC (centres undefined) | > 36 | > 100 | > 100 | > 100 | 14.8 |  | > 20 |  | 30.1 |  |  | > 96.2 |  |  |  |  |  | > 100 |  |  |
| COC(=O)c1cncc2c1CC1C3(C(=O)OC)C=NC(C4C(CO)=CCC43)C21C (centres undefined) |  | > 100 | > 100 | > 100 | > 100 | > 100 |  |  | > 100 |  |  | > 100 |  |  |  |  |  | > 100 |  |  |
| N#Cc1c2c(c(N3CCOCC3)n3c1nc1ccccc13)CCCC2 | > 100 | 29 | 41.5 | 45.8 | > 100 | 44.4 | 55.5 |  | 30.1 |  |  | 51.4 |  |  |  |  |  | 38.8 |  |  |
| Cc1cc(S(=O)(=O)Nc2nnc3cc(C(F)(F)F)cc(C)n23)c(S)cc1Cl | > 100 | > 100 | > 100 | > 100 | > 100 | > 100 | > 100 |  | > 100 |  |  | > 100 |  |  |  |  |  | > 100 |  |  |
| CCCCN(c1ccccc1)c1ncnc2c1cnn2C | > 100 | > 100 | 40.8 | > 100 | > 100 | > 100 | > 100 |  | 53.6 |  |  | > 100 |  |  |  |  |  | > 100 |  |  |
| O=C(O)c1ccc(Nc2nc3cc(C(F)(F)F)ccc3nc2C(=O)O)cc1 | > 100 | > 100 | > 100 | > 100 | > 100 |  |  |  | > 100 |  |  | > 100 |  |  |  |  |  |  |  |  |
| Cc1ccc2c(c1)OC1Nc3ccccc3C1=C2O (centres undefined) | > 100 | > 100 | > 100 | 93.4 | > 100 | 68 | 48 |  | > 100 |  |  | > 100 |  |  |  |  |  | > 100 |  |  |
| COS(=O)c1cc(Cl)cc(Cl)c1O (centres undefined) | > 100 |  | > 100 | > 100 | > 100 | > 100 | > 100 |  | 36.3 |  |  | > 100 |  |  |  |  |  |  |  |  |
| O=C1C=CC(=O)c2ncccc21 | > 24.7 | 4.62 | > 24.1 | 16 | 25.5 | 13.1 | 9.3 |  | 3.44 |  |  | 11.4 |  |  |  |  |  | 3.25 |  |  |
| CCCCCCCCCCCCCCCCCCOCC(O)COP(=O)(O)OCC1OC(n2cc(F)c(=O)[nH]c2=O)CC1O (centres undefined) | 32.1 | > 61.4 | 21.6 | 27.9 | 51 | 15.5 | 9.7 |  | 27.9 |  |  | 32.2 |  |  |  |  |  | 24.2 |  |  |
| COC(=O)[C@@H]1N2C(=S)N(c3ccccc3)C(=O)[C@H]2SC1(C)C |  | > 100 | > 100 | > 100 | > 100 | > 100 | > 100 |  | > 100 |  |  | > 100 |  |  |  |  |  | 69.2 |  |  |
| Cc1[nH]c(-c2ccccc2)c(-c2ccc(Cl)cc2)c1C(=O)ONC(=O)c1ccccc1 | 16.7 | 31.7 | 6.97 | 5.21 | > 48.3 | 19.9 | 23.3 |  | 5.42 |  |  |  |  |  |  |  |  | 4.01 |  |  |
| C=C1C[C@]23C[C@@]1(O)CC[C@H]2[C@@]12C=C[C@H](O)[C@@](C)(C(=O)O1)[C@H]2[C@@H]3C(=O)O | > 100 | > 100 | > 100 | > 100 | > 100 | > 100 | > 100 |  | > 100 |  |  | > 100 |  |  |  |  |  | > 100 |  |  |
| O=C(O)c1ccccc1/C=N\NC1=NCCCCN1 | > 100 | > 100 | > 100 | > 100 | > 100 | > 100 | > 100 |  | > 100 |  |  | > 100 |  |  |  |  |  |  |  |  |
| CCOP(=O)(OCC)C(Nc1ccc(F)cc1)c1cccc([N+](=O)[O-])c1 (centres undefined) | > 100 | > 100 | > 100 | > 100 | > 100 | > 100 | > 100 |  | > 100 |  |  | > 100 |  |  |  |  |  | > 100 |  |  |
| COC1/C=C/C(C)C(C(C)C(OC)C(C)CCC(=O)C(C)C(CCC(=O)O)OC)OC(=O)/C=C/C=C(\C)CC(OC)CC2=CC(=O)O[C@@H](C(C)C(OC)CC(OC)/C=C/C(C)C(OC)C1)[C@H]2O (some centres undefined) | > 5 | > 5 | > 3.93 | > 5 | > 5 | > 5 | > 4.31 |  | > 5 |  |  | > 5 |  |  |  |  |  | 1.36 |  |  |
